ChEMBL document CHEMBL1201862, “PubChem BioAssay data set” (2004)
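Cells were grown in 96-well plates and exposed to each compound for 48 hours at five concentrations; endpoints were interpolated linearly between bracketing concentrations, or set to the highest concentration if not reached. GI50 is the concentration that inhibits growth by half.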 Active and inactive are the calls of the source. Cut-off read from the data, not from the text of the source: active = GI50 up to about 1.1 µM and inactive = higher.

How the values were obtained:
Assay in all cases: growth of human tumour cells (NCI), 48 h
SN12C = system: SN12C
NCI-H460 = system: NCI-H460
BT-549 = system: BT-549
SNB-19 = system: SNB-19
TK-10 = system: TK-10
HL-60 = system: HL-60
SF-539 = system: SF-539
DU-145 = system: DU-145
MOLT-4 = system: MOLT-4
KM12 = system: KM12
OVCAR-5 = system: OVCAR-5
SK-OV-3 = system: SK-OV-3
UO-31 = system: UO-31
SF-295 = system: SF-295
OVCAR-8 = system: OVCAR-8
HCC 2998 = system: HCC 2998
MDA-MB-231 = system: MDA-MB-231
HOP-62 = system: HOP-62
SK-MEL-5 = system: SK-MEL-5
A549 = system: A549
COLO 205 = system: COLO 205
OVCAR-3 = system: OVCAR-3
T47D = system: T47D
MCF7 = system: MCF7
CCRF-CEM = system: CCRF-CEM
SK-MEL-2 = system: SK-MEL-2
HT-29 = system: HT-29
SR = system: SR
MDA-N = system: MDA-N
K562 = system: K562
NCI-H23 = system: NCI-H23
HCT-15 = system: HCT-15
EKVX = system: EKVX
SW-620 = system: SW-620
HCT-116 = system: HCT-116
UACC-257 = system: UACC-257
U-251 = system: U-251
NCI-H226 = system: NCI-H226
NCI/ADR-RES = system: NCI/ADR-RES
ACHN = system: ACHN
CAKI-1 = system: CAKI-1
A498 = system: A498
SF-268 = system: SF-268
OVCAR-4 = system: OVCAR-4
PC-3 = system: PC-3
UACC-62 = system: UACC-62
IGROV-1 = system: IGROV-1
SNB-75 = system: SNB-75
Hs-578T = system: Hs-578T
NCI-H522 = system: NCI-H522
786-0 = system: 786-0
SK-MEL-28 = system: SK-MEL-28

Measured: GI50

C[C@H](CS)C(=O)N1c2ccccc2C[C@H]1C(=O)O
inactive: SN12C > 100 µM | NCI-H460 > 100 µM | BT-549 > 100 µM | SNB-19 > 100 µM | TK-10 > 100 µM | HL-60 > 100 µM | SF-539 > 100 µM | DU-145 > 100 µM | MOLT-4 > 100 µM | KM12 > 100 µM | OVCAR-5 > 100 µM | SK-OV-3 > 100 µM | UO-31 > 100 µM | SF-295 > 100 µM | OVCAR-8 > 100 µM | HCC 2998 37.5 µM | MDA-MB-231 > 100 µM | HOP-62 > 100 µM | SK-MEL-5 > 100 µM | A549 > 100 µM | COLO 205 > 100 µM | OVCAR-3 > 100 µM | T47D 56 µM | MCF7 > 100 µM | CCRF-CEM > 100 µM | SK-MEL-2 > 100 µM | HT-29 97.1 µM | SR > 100 µM | MDA-N > 100 µM | K562 > 100 µM | NCI-H23 > 100 µM | EKVX > 100 µM | SW-620 > 100 µM | HCT-116 > 100 µM | UACC-257 > 100 µM | U-251 > 100 µM | NCI-H226 > 100 µM | NCI/ADR-RES > 100 µM | ACHN > 100 µM | CAKI-1 > 100 µM | A498 > 100 µM | SF-268 > 100 µM | OVCAR-4 > 100 µM | PC-3 > 100 µM | UACC-62 > 100 µM | IGROV-1 > 100 µM | SNB-75 > 100 µM | Hs-578T > 100 µM | NCI-H522 > 100 µM | 786-0 > 100 µM | SK-MEL-28 > 100 µM
> 100 µM: HCT-15
